In patent US9445590B2, “Fungicidal composition comprising a pyridylethylbenzamide derivative and a compound capable of inhibiting the transport of electrons of the respiratory chain in phytopathogenic fungal organisms” (BAYER INTELLECTUAL PROPERTY GMBH, priority 2004, dated 2016):

How the values were obtained:
[1] = system: Botrytis cinerea; experiment: Efficacy against Botrytis cinerea on gherkin plants (preventive spray); assay type: in vivo; settings: Botrytis cinerea, grading 5 to 7 days after contamination
Protocol: (§1) The active ingredients tested are prepared by potter homogenisation in a mixture of acetone/tween/water. This suspension is then diluted with water to obtain the desired active material concentration.
(§2) Gherkin plants (Petit vert de Paris variety) in starter cups, sown on a 50/50 peat soil-pozzolana substrate and grown at 18-20° C., are treated at the cotyledon Z11 stage by spraying with the aqueous suspension described above. Plants, used as controls, are treated with an aqueous solution not containing the active material.
After 24 hours, the plants are contaminated by depositing drops of an aqueous suspension of Botrytis cinerea spores (150,000 spores per ml) on upper surface of the leaves. The spores are collected from a 15-day-old culture and are suspended in a nutrient solution composed of: • 20 g/L of gelatine • 50 g/L of cane sugar • 2 g/L of NH4NO3 • 1 g/L of KH2PO4
The contaminated gherkin plants are settled for 5/7 days in a climatic room at 15-11° C. (day/night) and at 80% relative humidity. Grading is carried out 5 to 7 days after contamination, in comparison with the control plants.
as §2, with “Z 11” for “Z11”
(§3) The formulated compounds are diluted with water to obtain the desired active material concentration.

[2] = system: Alternaria brassicae; experiment: Efficacy against Alternaria brassicae (in vitro), growth on PDA medium; assay type: cell-based; settings: Alternaria brassicae, 336 h, radial growth after 14 days
Protocol: The growth of Alternaria brassicae was followed on PDA medium containing the compounds alone or in mixtures. The PDA medium is prepared by mixing 39 grams of PDA (Merck) in 1 litter of demineralised water. The medium is sterilized by autoclave 15 minutes at 121° C. The compounds are dissolved in acetone and added to the medium before pouring it in Petri dishes. After medium drying, the fungus is inoculated on the medium and allowed to growth at 19° C. The percentage of efficacy is noted after 14 days of growth (measurement of the radial growth) of the fungus in comparison with a control. […]

[3] = system: Alternaria brassicae; experiment: Efficacy against Alternaria brassicae on radish plants (preventive spray); assay type: in vivo; settings: Example 13, dose 4 ppm, grading 6 to 7 days after contamination
Protocol: as §3
Radish plants (Pernot variety) in starter cups, sown on a 50/50 peat soil-pozzolana substrate and grown at 18-20° C., are treated at the cotyledon stage by spraying with the aqueous suspension described above.
(§4) Plants, used as controls, are treated with an aqueous solution not containing the active material.
After 24 hours, the plants are contaminated by spraying them with an aqueous suspension of Alternaria brassicae spores (40,000 spores per cm^3). The spores are collected from a 12-13-day-old culture.
The contaminated radish plants are incubated for 6-7 days at about 18° C., under a humid atmosphere.
Grading is carried out 6 to 7 days after the contamination, in comparison with the control plants.

[4] = system: Sphaerotheca fuliginea; experiment: Efficacy against Sphaerotheca fuliginea on gherkin plants (preventive spray); assay type: in vivo; settings: Podosphaera fuliginea, 504 h, grading 21 days after contamination
Protocol: as §1
as §2, with “(Vert petit” for “(Petit vert”, “20° C./23°” for “18-20°”, “2-leaves” for “cotyledon Z11”
After 24 hours, the plants are contaminated by spraying them with an aqueous suspension of Sphaerotheca fuliginea spores (100 000 spores per ml). The spores are collected from a contaminated plants. The contaminated gherkin plants are incubated at about 20° C./25° C. and at 60/70% relative humidity.
Grading (% of efficacy) is carried out 21 days after the contamination, in comparison with the control plants.

[5] = system: Erysiphe graminis f. sp. tritici; experiment: Efficacy against Erysiphe graminis f. sp. tritici on wheat plants (preventive spray); assay type: in vivo; settings: Blumeria graminis, grading 7 to 14 days after contamination
Protocol: as §1
(§5) Wheat plants (Audace variety) in starter cups, sown on 50/50 peat soil-pozzolana substrate and grown at 12° C., are treated at the 1-leaf stage (10 cm tall) by spraying with the aqueous suspension described above.
as §4
After 24 hours, the plants are contaminated by dusting them with Erysiphe graminis f. sp. tritici spores, the dusting being carried out using diseased plants.
Grading is carried out 7 to 14 days after the contamination, in comparison with the control plants.
as §3
as §5, with “above. Plants, used as controls, are treated with an aqueous solution not containing the active material.” for “above.”

[6] = system: Pyrenophora teres; experiment: Efficacy against Pyrenophora teres on barley plants (preventive spray); assay type: in vivo; settings: 288 h, grading 12 days after contamination
Protocol: as §1
as §2, with “Barley” for “Gherkin”, “(Express” for “(Petit vert de Paris”, “12°” for “18-20°”, “1-leaf” for “cotyledon Z11”, “stage (10 cm tall)” for “stage”
After 24 hours, the plants are contaminated by spraying them with an aqueous suspension of Pyrenophora teres spores (12 000 spores per ml). The spores are collected from a 12-day-old culture. The contaminated barley plants are incubated for 24 hours at about 20° C. and at 100% relative humidity, and then for 12 days at 80% relative humidity.
Grading (% of efficacy) is carried out 12 days after the contamination, in comparison with the control plants.

O=C(NCCc1ncc(C(F)(F)F)cc1Cl)c1ccccc1C(F)(F)F [Compound 1, N-{2-[3-chloro-5-(trifluoromethyl)-2-pyridinyl]ethyl}-2-trifluoromethylbenzamide] gave an Emax at 37 ppm ([1]; Example 5, dose 37 ppm) of 0%, an Emax at 111 ppm ([1]; Example 5, dose 111 ppm) of 60% and an Emax at 333 ppm ([1]; Example 5, dose 333 ppm) of 90%. For the same compound, the Emax at 37 ppm ([1]; Example 6, dose 37 ppm) was 0%, the Emax at 111 ppm ([1]; Example 6, dose 111 ppm) was 60% and the Emax at 333 ppm ([1]; Example 6, dose 333 ppm) was 100%. For the same compound, the Emax at 12 ppm ([1]; Example 7, dose 12 ppm) was 0%, the Emax at 37 ppm ([1]; Example 7, dose 37 ppm) was 40% and the Emax at 111 ppm ([1]; Example 7, dose 111 ppm) was 92%. It also gave an Emax at 37 ppm ([1]; Example 8, dose 37 ppm) of 3%, an Emax at 111 ppm ([1]; Example 8, dose 111 ppm) of 58% and an Emax at 333 ppm ([1]; Example 8, dose 333 ppm) of 75%. It also gave an Emax at 37 ppm ([1]; Example 10, dose 37 ppm) of 72%, an Emax at 31.2 ppm ([1]; Example 14, dose 31.2 ppm, formulated compounds) of 20% and an Emax at 62.5 ppm ([1]; Example 14, dose 62.5 ppm, formulated compounds) of 40%. It also gave an Emax at 0.025 ppm ([2]; Example 2, dose 0.025 ppm) of 34%, an Emax at 0.05 ppm ([2]; Example 2, dose 0.05 ppm) of 45% and an Emax at 0.1 ppm ([2]; Example 2, dose 0.1 ppm) of 53%. The Emax at 0.25 ppm ([2]; Example 2, dose 0.25 ppm) was 76%, the Emax at 0.5 ppm ([2]; Example 2, dose 0.5 ppm) was 90% and the Emax at 4 ppm [3] was 40%. The Emax at 4 ppm ([4]; Example 11, dose 4 ppm) was 10%, the Emax at 8 ppm ([4]; Example 11, dose 8 ppm) was 15% and the Emax at 15 ppm ([4]; Example 11, dose 15 ppm) was 25%. It also gave an Emax at 7.8 ppm ([4]; Example 12, dose 7.8 ppm) of 10%, an Emax at 15.6 ppm ([4]; Example 12, dose 15.6 ppm) of 18% and an Emax at 31.2 ppm ([4]; Example 12, dose 31.2 ppm) of 86%. It also gave an Emax at 125 ppm ([5]; Example 4, dose 125 ppm) of 20%, an Emax at 250 g/ha ([5]; Example 9, dose 250 g/ha, formulated compounds) of 50% and an Emax at 4 g/ha ([6]; Example 1, dose 4 g/ha) of 20%. It also gave an Emax at 8 g/ha ([6]; Example 1, dose 8 g/ha) of 50%.
